The values below come from patent US20140301961A1, “COMPOUNDS WITH ANTI-AGING ACTIVITIES” (priority 2011, published 2014).

For series [1] the following is noted: cited from earlier work.
Series [2] relates to Plasminogen activator (PLAT). Kind of series: Plasminogen activator (PLAT) activation.
The test system of series [3] is connective tissue growth factor (CTGF). Briefly: Affymetrix gene array on skin explants, CTGF. It is filed as cell-based, human. The following applies: topical, 24 hours. From the text: (§1) Subcutaneous fat from full thickness skin, obtained from surgical waste material from breast reduction procedures, was removed with a scalpel. Three healthy Caucasian female donors were used for this study. The female donors differed from those of the skin-treatment study outlined previously 8 mm punch biopsies were taken from the skin (and these biopsies are now referred to as skin explants). Skin explants were put on Milipore cell culture inserts (12 mm diameter). Inserts containing skin explants were put in 6-well plates (one insert/well) and 1 mL of supplemented keratinocyte medium (ex Cascade Biologics) was added to each well. A tretinoin-containing cream (Aberela® ex. Janssen): 0.05% tretinoin in the cream, was applied topically to each explant (5 μL/cm^2) using a positive displacement pipette. A placebo cream without tretinoin was used as a control. The skin explants were incubated with tretinoin for 24 hours at 37° C. in 5% CO2-humidified air.
(§2) RNA concentration was measured with ND-1000 spectrophotometer (ex. NanoDrop Technologies) and RNA quality was evaluated using the Agilent 2100 bioanalyzer system (ex. Agilent Technologies). 250 nanograms of total RNA from each skin or skin explant sample was used to prepare biotinylated fragmented cRNA according to the GeneChip® 3′IVT Express Kit Manual (PN702646 Rev 1, ex. Affymetrix Inc.). Affymetrix GeneChip® expression arrays (Human Genome U133 Plus 2.0) were hybridized for 16 hours in a 45° C. incubator, rotated at 60 rpm. According to the GeneChip Expression Wash, Stain and Scan Manual (PN 702731 Rev 2, ex. Affymetrix Inc.) the arrays were washed and stained using the Fluidics Station 450 and scanned using the GeneChip® Scanner 3000 7G.
(§3) Analysis of the gene expression data was carried out in the statistical computing language R (http://www.r-project.org) using packages available from the Bioconductor project (www.bioconductor.org). The raw data was normalized using the robust multi-array average (RMA) method. In order to search for differentially expressed genes between the X samples and the Y samples group an empirical Bayes moderated t-test was then applied using the ‘limma’ package.
Skin explants were obtained as detailed in Example 3.1. Compounds naringenin and N-acetyl aspartic acid were topically applied on skin explants for 24 hours and investigated with Affymetrix gene array.

A further series relates to Kallikrein 8. Kind of series: Kallikrein 8 ELISA in human normal keratinocytes. Format: cell-based. The settings on record: 4 days stimulation (FIG. 14). As to the method:
(§4) Keratinocytes were cultured in commercially available keratinocyte medium M154 (Cascade Biologics/Invitrogen) # M154500 with a final calcium […]. Supplements were added meeting following final concentrations of growth factors; bovine pituitary extract (BPE), 0.2% v/v·bovine insulin, 5 μg/ml·hydrocortisone, 0.18 μg/ml·bovine transferrin, 5 μg/ml·human epidermal growth factor, 0.2 ng/ml.
Keratinocytes used for Kallikrein 8 experiments were cultured as described in example 2.1. Experiments were performed in monolayers with 80% confluence. The cells were stimulated for 4 days prior to kallikrein 8 analysis with the different actives and then culture supernatant were collected and stored in −20° C. until further analysis. Kallikrein 8 production was analysed in cell culture supernatants from stimulated keratinocytes using a ELISA assay specific for Kallikrein 8 (Uscn Life Science Inc, E90690Hu). Results were compared with cell culture supernatants from DMSO vehicle treated cells. The assays utilized a 96-well microplate format and were processed according to the manufacturer's protocol, including generation of a standard curve prepared in background assay diluents. Absorbance of the assay dye was read at a Synergy HT plate reader. Values that fell within the linear range of the calibration assay were accepted. Quantities were determined by comparison to standard curves obtained for KLK8.
Background: ELISA stands for enzyme-linked immunosorbent assay.

Series [4] has as its system prostaglandin-endoperoxide synthase 1 (PTGS1). Kind of series: Affymetrix gene array on skin explants, PTGS1. The settings on record: topical, 24 hours. Format: cell-based, human.
Source text: as §1, §2, §3
(§5) Skin explants were obtained as detailed in Example 3.1.

Series [5] deals with heparin-binding EGF-like growth factor (HBEGF). Briefly: Affymetrix gene array on skin explants, HBEGF. Format: cell-based, human. The settings on record: topical, 24 hours, cut-off |log 2−ratio|>1.
Source text: as §1, §2
Analysis of the gene expression data was carried out in the statistical computing language R (http://www.r-project.org) using packages available from the Bioconductor project (www.bioconductor.org). The raw data was normalized using the robust multi-array average (RMA) method. […]

For series [6], the system named is tachykinin, precursor 1 (TAC1). Briefly: Affymetrix gene array on skin explants, TAC1. It is filed as cell-based, human. The settings on record: topical, 24 hours.
Source text: as §1, §2, §3, §5

The subject of series [7] is arachidonate 5-lipoxygenase (ALOX5). Kind of series: Affymetrix gene array on skin explants, ALOX5. The following applies: topical, 24 hours. Format: cell-based, human.
Source text: as §1, §2, §3, §5

Series [8] has as its system hydroxysteroid (17-beta) dehydrogenase 2 (HSD17B2). Briefly: Affymetrix gene array on skin explants, HSD17B2. It is filed as cell-based, human. The settings on record: topical, 24 hours.
Source text: as §1, §2, §3, §5

Series [9] relates to steroid 5 alpha-reductase 3 (SRD5A3). Briefly: Affymetrix gene array on skin explants, SRD5A3. The settings on record: topical, 24 hours. Format: cell-based, human.
Source text: as §1, §2, §3, §5

The test system of another series is VEGF. Kind of series: Inflammation induced VEGF synthesis in cultured dermal fibroblasts. Format: cell-based, human. The following applies: inflammatory inducer PMA (FIG. 10). The method, then: (§6) MMP-inhibitory activity for compounds of the invention was also assessed on human dermal fibroblasts. Dermal fibroblasts were cultured in Dulbecco's Modified Eagle Medium (DMEM) (Invitrogen) with 10% EBS (ex. Invitrogen) and 1% Pencillin/Streptavidin (ex. Invitrogen). To induce inflammation in the cells, PMA (phorbol myristate acetate) (ex. Sigma) was used at a concentration of 10 nM. […] The cells were stimulated for 24 h and the culture supernatant was collected and stored at −20° C. until further analysis.
Fluorokine MultiAnalyte Profiling (xMAP) using the BioPlex (ex. Biorad) dual laser flow-based sorting and detection analyzers manufactured by Luminex corporation (Luminex, Austin, Tex.) was employed to measure levels of MMP in conditioned media samples of stimulated dermal fibroblasts. The technology incorporated polystyrene microspheres dyed internally with differing ratios of two spectrally distinct fluorophores to create a family of different spectrally addressed bead sets. The bead utilized in this study was conjugated with a biotinylated capture antibody specific for a unique MMPs, The assay was performed without antecedent serum depletion. Results were compared with medium from cells treated with vehicle only (DMSO). The assays utilized a 96-well microplate format and were processed according to the manufacturer's protocol, including generation of a standard curve for each target prepared in background assay diluents. Values that fell within the linear range of the calibration assay were accepted. Samples were analyzed using the Bio-Plex suspension array system and Bio-Plex Manager software 4.0 (Bio-Rad Laboratories, Hercules, Calif.). Quantities were determined by comparison to standard curves obtained for the different MMP.
Cell culture and cytokine analysis was carried out on human dermal fibroblasts as described in Example 3.1. The methodology was adapted in order analyze VEGF production.

The test system of the next series is pro-collagen type 1. Kind of series: Pro-collagen 1 ELISA in dermal fibroblasts. The settings on record: 24 hour stimulation, 3 donors (FIG. 5). Format: cell-based, human. As to the method: as §6
Fibroblast cells were cultured as outlined in Example 3.1 and treated with compounds of the invention The secretion of pro-collagen in the cell culture supernatants were analyzed using Pro-Collagen 1 specific ELISA (#8003; ex. Quidel). Results were compared with cell culture supernatants from DMSO vehicle treated cells. The assays utilized a 96-well microplate format and were processed according to the manufacturer's protocol, including generation of a standard curve prepared in background assay diluents. Absorbance of the assay dye was read at a Synergy HT plate reader. Values that fell within the linear range of the calibration assay were accepted. Quantities were determined by comparison to standard curve obtained for pro-collagen 1.

For another series, the system named is Keratin 1/10. Briefly: Keratin 1/10 production in human normal keratinocytes. The following applies: concentration not given. Format: cell-based. The method, then: as §4
(§7) Medium was changed every other day. Cells were grown to 80% confluence prior stimulation with compounds. Experiments were performed in 24-well plates. The cells were treated with individual compounds of the invention for 6 days. After 3 days the medium was refreshed. A source of calcium ions was used as a positive control. After 6 days tissue culture medium was stored in −20° C. until analysis.
Cells were cultured as described in Example 5.1. and the methodology described in Example 3.1 was adapted in order analyze keratin 1/10 production.

In a further series the test system is fibronectin. Kind of series: Fibronectin production in human keratinocytes. Format: cell-based. The following applies: 6 days stimulation, compared to all-trans retinoic acid and retinol. As to the method: as §4, §7
Experimental method as outlined in Example 3.1 was modified in order to analyze fibronectin levels extracted from keratinocytes stimulated for 6 days with all-trans retinoic acid, retinol, arachidonic acid, β-aescin, and […] (ethyl ester) at a range of concentrations. Experiments were performed in duplicates.
Cells were cultured as described in Example 5.1. and the methodology described in Example 3.1 was adapted in order analyze fibronectin production.

In the next series the test system is keratin 6. Briefly: Keratin-6 production in normal human keratinocytes. It is filed as cell-based. The settings on record: normal human keratinocytes (FIG. 11).

With `O=c1cc(-c2ccc(O)cc2)oc2c([C@@H]3O[C@H](CO)[C@@H](O)[C@H](O)[C@H]3O)c(O)cc(O)c12` [Vitexin], in [1], the Log p was 1.5.
Regarding `CC1=C(/C=C/C(C)=C/C=C/C(C)=C/C(=O)O)C(C)(C)CCC1` [All-trans retinoic acid, all-trans retinoic acid, reference compound], the “Plasminogen activator (PLAT) activation” value in [2] is given as “activated”. The CTGF gene expression result is “No” in series [3] (cut-off |log 2−ratio|>1) and “did not have any effect” in [3] (cut-off |log 2−ratio|>1, listed as all-trans retinoic acid). The “synthesis of kallikrein 8” value in the series with Kallikrein 8 is listed as “significant stimulation of kallikrein 8”. The PTGS1 gene expression in series [4] is listed as −1.03 log 2−ratio. Moreover, in series [5], the HBEGF gene expression was found to be 1.21 log 2−ratio. Besides, in series [6], the TAC1 gene expression was −4.01 log 2−ratio. Besides, in series [7], the ALOX5 gene expression is listed as −0.69 log 2−ratio. Moreover, in [8], the HSD17B2 gene expression is −0.48 log 2−ratio. The molecule also had an SRD5A3 gene expression in [9] of 0.29 log 2−ratio. The “inflammatory induced VEGF synthesis” value in the series on VEGF is listed as “additional increase in VEGF”.
For `O=c1c(O)c(-c2ccc(O)c(O)c2)oc2cc(O)cc(O)c12` [Quercetin], the “production of pro-collagen type 1” value in the series on pro-collagen type 1 is recorded as “promote pro-collagen 1 expression”. In addition, the “synthesis of kallikrein 8” value in the series with Kallikrein 8 is given as “induce production of Kallikrein 8”. Besides, the “production of Keratin 1/10” value in the series with Keratin 1/10 is on record as “stimulate production of Keratin 1/10”.
For the molecule `CC1=C(/C=C/C(C)=C/C=C/C(C)=C/CO)C(C)(C)CCC1` [retinol, All-trans retinol, reference compound], in the series with Kallikrein 8, the “synthesis of kallikrein 8” value was “significant stimulation of kallikrein 8”. Besides, the “inflammatory induced VEGF synthesis” value in the series with VEGF is on record as “small but insignificant decrease in VEGF”.
As for `CCCCC/C=C\C/C=C\C/C=C\C/C=C\CCCC(=O)O` [Arachdonic acid, Arachidonic acid], the “production of pro-collagen type 1” value in the series on pro-collagen type 1 is “promote pro-collagen 1 expression”. The “synthesis of kallikrein 8” value with Kallikrein 8 is listed as “significant increase in the synthesis of kallikrein 8”. The Log p in [1] is recorded as 6.98. Also, the “fibronectin production / release” value in the series on fibronectin is listed as “higher fibronectin production than retinoic acid”. Further, the “production of Keratin 1/10” value in the series with Keratin 1/10 was “stimulate production of Keratin 1/10”.
As to `CC/C=C\C/C=C\C/C=C\C/C=C\C/C=C\C/C=C\CCC(=O)OCC` [Docosahexaenoic acid (ethyl ester)], the “production of pro-collagen type 1” value with pro-collagen type 1 is “convincing trend towards increasing”. The “synthesis of kallikrein 8” value with Kallikrein 8 was “significant increase in the synthesis of kallikrein 8”. The “fibronectin production / release” value in the series with fibronectin was “higher fibronectin production than retinoic acid”. In the series on Keratin 1/10, the “production of Keratin 1/10” value is on record as “stimulate production of Keratin 1/10”. For the same molecule, the keratin-6 production entry with keratin 6 is “stimulated keratin-6 production”.
Consider β-aescin [Beta Aescin], for which, in the series on pro-collagen type 1, the “production of pro-collagen type 1” value is “convincing trend towards increasing”. In addition, the “synthesis of kallikrein 8” value with Kallikrein 8 is on record as “induce production of Kallikrein 8”. In addition, the “fibronectin production / release” value with fibronectin is on record as “higher fibronectin production than retinoic acid”. The “production of Keratin 1/10” value with Keratin 1/10 is recorded as “stimulate production of Keratin 1/10”. Further, the “inflammatory induced VEGF synthesis” value in the series with VEGF is given as “decreased VEGF expression, although insignificant”.
